What was measured:
Assay type in all cases: cell-based
MDA-MB-231 = assay: Antiproliferative activity (MTS assay), MDA-MB-231; conditions: Homo sapiens, MDA-MB-231, 96 h, MDA-MB-231 cells
Method: (§1) Antiproliferative effect is expressed as IC50 values in microMolar final concentration.
(§2) Cells were grown at 37° C. in a humidified atmosphere with 5% CO2 and 95% air. Cells were seeded in 96 well tissue culture plates.
(§3) Compound treatment started after overnight incubation of cells (TO). […] Compound was added to the plate in triplicate wells, and the plates were then incubated for 96 hours. DMSO (compounds diluents) was also included and added to the plate in control wells. Cell viability was then determined by MTS assay using CellTiter 96® AQueous non-radioactive cell proliferation assay system (Promega). A plate reader (Molecular Devices, Vmax) was used to read the optical densities, and the results were used to deduce concentration-response curves. […] The results were analyzed using linear regression software (GraphPad Prism 5; GraphPad Software Inc.).
(§4) The GI50 values (growth inhibitory activity) were determined to emphasize on the correction for the cell count at time zero; thus, the % inhibition of test drug were: [1−(T−T0)/(C−T0)]×100; and these value were used to plot the concentration-response curves, and then analyzed with linear regression software (GraphPad Prism 5).

Hela = assay: Antiproliferative activity (MTS assay), Hela; conditions: Homo sapiens, HeLa, 96 h, Hela cells
Method: as §1, §2, §3, §4

K562 = assay: Antiproliferative activity (MTS assay), K562; conditions: Homo sapiens, K562, 96 h, K562 cells
Method: as §1, §2, §3, §4

MDA-MB-468 = assay: Antiproliferative activity (MTS assay), MDA-MB-468; conditions: Homo sapiens, MDA-MB-468, 96 h, MDA-MB-468 cells
Method: as §1, §2, §3, §4

| SMILES | IC50 (MDA-MB-231) | IC50 (Hela) | IC50 (K562) | IC50 (MDA-MB-468) |
| --- | --- | --- | --- | --- |
| Cc1sc(NC(=O)c2ccncc2)nc1-c1ccccc1 [Compound 2] | > 10 µM | > 10 µM | > 10 µM | 8.15 µM |
| Cc1sc(NC(=O)c2cccnc2)nc1-c1ccccc1 [Compound 3] | > 10 µM | > 10 µM | > 10 µM | > 10 µM |
| Cc1cc(C)c(-c2csc(NC(=O)c3ccncn3)n2)c(C)c1 [Compound 5] | 7.37 µM | > 10 µM | 5.74 µM | 4.57 µM |
| Cc1ccc(-c2csc(NC(=O)c3ccncc3)n2)cc1 [Compound 6] | 0.67 µM | 1.05 µM | 1.48 µM | 1.14 µM |
| Cc1ccc(-c2csc(NC(=O)c3ccc(C#N)cc3)n2)cc1 [Compound 7] | > 10 µM | > 10 µM | > 10 µM | > 10 µM |
| Cc1cc(C)c(-c2csc(NC(=O)c3ccnnc3)n2)c(C)c1 [Compound 8] | 3.12 µM | 8.75 µM | 5.6 µM | 6.18 µM |
| Cc1cc(C)c(-c2csc(NC(=O)c3cncs3)n2)c(C)c1 [Compound 9] | 1.24 µM | 1.51 µM | 2.68 µM | 1.83 µM |
| COc1ccc(-c2nc(NC(=O)c3ccncc3)sc2C)cc1 [Compound 10] | 8.03 µM | > 10 µM | > 10 µM | 8.89 µM |
| COc1ccc(-c2csc(NC(=O)c3ccncc3)n2)cc1 [Compound 12] | 1.41 µM | > 10 µM | 3.91 µM | 2.88 µM |
| COc1ccc(-c2nc(NC(=O)c3cccnc3)sc2C)cc1 [Compound 14] | > 10 µM | > 10 µM | > 10 µM | > 10 µM |
| Cc1sc(NC(=O)c2ccccn2)nc1-c1ccccc1 [Compound 19] | 6.75 µM | > 10 µM | > 10 µM | 6.85 µM |
| COc1cc(-c2csc(NC(=O)c3cccnc3)n2)cc(OC)c1OC [Compound 20] | > 10 µM | > 10 µM | > 10 µM | > 10 µM |
| COc1cc(-c2csc(NC(=O)c3ccncc3)n2)cc(OC)c1OC [Compound 27] | > 10 µM | > 10 µM | > 10 µM | > 10 µM |
| Cc1ccc(-c2csc(NC(=O)c3cccnc3)n2)cc1 [Compound 28] | > 10 µM | > 10 µM | > 10 µM | > 10 µM |
| Cc1ccc(-c2nc(NC(=O)c3ccc(C#N)cc3)sc2C)cc1 [Compound 30] | > 10 µM | > 10 µM | > 10 µM | > 10 µM |
| Cc1ccc(-c2nc(NC(=O)c3cccnc3)sc2C)cc1 [Compound 31] | > 10 µM | > 10 µM | > 10 µM | > 10 µM |
| Cc1ccc(-c2nc(NC(=O)c3ccccn3)sc2C)cc1 [Compound 32] | > 10 µM | > 10 µM | > 10 µM | > 10 µM |

| SMILES | IC50 (MDA-MB-231) | IC50 (Hela) | IC50 (K562) | IC50 (MDA-MB-468) |
| --- | --- | --- | --- | --- |
| Cc1cc(C)c(-c2csc(NC(=O)c3ccsc3)n2)c(C)c1 [Compound 33] | > 10 µM | > 10 µM | > 10 µM | 0.79 µM |
| COc1cc(-c2csc(NC(=O)c3ccncc3)n2)ccc1O [Compound 34] | > 10 µM | > 10 µM | > 10 µM | > 10 µM |
| COc1ccc(-c2csc(NC(=O)c3cccnc3)n2)cc1 [Compound 37] | > 10 µM | > 10 µM | > 10 µM | > 10 µM |
| Cc1sc(NC(=O)c2ccc(C#N)cc2)nc1-c1ccccc1 [Compound 38] | 5.68 µM | > 10 µM | > 10 µM | 3.4 µM |
| COc1ccc(-c2nc(NC(=O)c3ccc(C#N)cc3)sc2C)cc1 [Compound 39] | > 10 µM | > 10 µM | > 10 µM | > 10 µM |
| COc1ccccc1CC(=O)Nc1nc(-c2ccccc2)c(C)s1 [Compound 41] | > 10 µM | > 10 µM | > 10 µM | > 10 µM |
| Cc1ccc(-c2nc(NC(=O)c3ccncc3)sc2C)cc1 [Compound 43] | > 10 µM | > 10 µM | > 10 µM | > 10 µM |
| Cc1cc(C)c(-c2csc(NC(=O)c3ccncc3)n2)c(C)n1 [Compound 44] | 1.24 µM | > 10 µM | 1.96 µM | 1.01 µM |
| Cc1cc(C)c(-c2csc(NC(=O)c3cccnc3)n2)c(C)n1 [Compound 46] | 7.41 µM | > 10 µM | > 10 µM | 7.19 µM |
| COc1cc(-c2csc(NC(=O)c3ccnnc3)n2)ccc1O [Compound 47] | > 10 µM | > 10 µM | > 10 µM | > 10 µM |
| COc1cc(-c2csc(NC(=O)c3ccsc3)n2)ccc1O [Compound 49] | > 10 µM | > 10 µM | > 10 µM | > 10 µM |
| COc1cc(-c2csc(NC(=O)c3cncs3)n2)ccc1O [Compound 50] | > 10 µM | > 10 µM | > 10 µM | > 10 µM |
| COc1cc(-c2csc(NC(=O)c3ccoc3)n2)ccc1O [Compound 51] | > 10 µM | > 10 µM | > 10 µM | > 10 µM |
| Cc1cc(-c2ccccc2)cc(C)c1-c1csc(NC(=O)c2ccncc2)n1 [Compound 53] | 0.43 µM | 0.48 µM | 0.62 µM | 0.48 µM |
| Cc1cc(Cl)cc(C)c1-c1csc(NC(=O)c2ccncc2)n1 [Compound 55] | 0.59 µM | 0.73 µM | 0.76 µM | 0.89 µM |
| N#Cc1ccc(C(=O)Nc2nc(-c3ccc(O)cc3)cs2)cc1 [Compound 56] | > 10 µM | > 10 µM | > 10 µM | > 10 µM |

Next, values leading:

| IC50 (MDA-MB-231) | IC50 (Hela) | IC50 (K562) | IC50 (MDA-MB-468) | SMILES |
| --- | --- | --- | --- | --- |
| > 10 µM | > 10 µM | > 10 µM | > 10 µM | COc1cc(OC)c(-c2csc(NC(=O)c3ccncc3)n2)c(OC)c1 [Compound 11] |
| > 10 µM | > 10 µM | > 10 µM | > 10 µM | COc1ccc(-c2csc(NC(=O)c3ccncc3)n2)c(OC)c1 [Compound 13] |
| > 10 µM | > 10 µM | > 10 µM | > 10 µM | COc1ccc(-c2csc(NC(=O)c3cccnc3)n2)c(OC)c1 [Compound 15] |
| > 10 µM | > 10 µM | > 10 µM | > 10 µM | COc1ccc(-c2nc(NC(=O)c3ccccn3)sc2C)cc1 [Compound 16] |
| > 10 µM | > 10 µM | > 10 µM | > 10 µM | COc1ccc(-c2csc(NC(=O)c3ccccn3)n2)cc1 [Compound 17] |
| > 10 µM | > 10 µM | > 10 µM | > 10 µM | COc1ccc(-c2csc(NC(=O)c3ccccn3)n2)c(OC)c1 [Compound 18] |
| > 10 µM | > 10 µM | > 10 µM | > 10 µM | COc1ccc(-c2csc(NC(=O)c3cccnc3)n2)c(F)c1 [Compound 21] |
| > 10 µM | > 10 µM | > 10 µM | 4.19 µM | COc1ccc(CCC(=O)Nc2nc(-c3ccc(OC)cc3F)cs2)cc1 [Compound 22] |
| > 10 µM | > 10 µM | > 10 µM | 7.12 µM | COc1ccc(-c2csc(NC(=O)CCc3ccccc3)n2)c(F)c1 [Compound 23] |
| > 10 µM | > 10 µM | > 10 µM | > 10 µM | COc1ccc(-c2csc(NC(=O)c3ccccn3)n2)c(F)c1 [Compound 24] |
| > 10 µM | > 10 µM | > 10 µM | > 10 µM | COc1cc(-c2csc(NC(=O)c3ccccn3)n2)cc(OC)c1OC [Compound 25] |
| 6.85 µM | > 10 µM | 2.43 µM | 2.25 µM | COc1ccc(-c2csc(NC(=O)c3ccncc3)n2)c(F)c1 [Compound 26] |
| > 10 µM | > 10 µM | > 10 µM | > 10 µM | Cc1ccc(-c2csc(NC(=O)c3ccccn3)n2)cc1 [Compound 29] |
| > 10 µM | > 10 µM | > 10 µM | > 10 µM | COc1cc(-c2csc(NC(=O)c3cccnc3)n2)ccc1O [Compound 35] |
| > 10 µM | > 10 µM | > 10 µM | > 10 µM | COc1cc(-c2csc(NC(=O)c3ccccn3)n2)ccc1O [Compound 36] |
| > 10 µM | > 10 µM | > 10 µM | > 10 µM | COc1ccc(-c2csc(NC(=O)Cc3ccccc3OC)n2)c(OC)c1 [Compound 40] |
| > 10 µM | > 10 µM | > 10 µM | 7.68 µM | Cc1cc(C)c(-c2csc(NC(=O)c3ccccn3)n2)c(C)n1 [Compound 45] |
| > 10 µM | > 10 µM | > 10 µM | > 10 µM | COc1cc(-c2csc(NC(=O)c3ccncn3)n2)ccc1O [Compound 48] |
| 4.56 µM | 5.92 µM | 6.65 µM | 6.95 µM | COc1ccc(-c2csc(NC(=O)c3ccnc(Cl)c3)n2)cc1 [Compound 54] |

Reference: US8946268B2, “Modulators of HEC1 activity and methods therefor” (Taivex Therapeutics, Inc., priority 2010, dated 2015)
